From PMC5601486, “Identification of 4-phenylquinolin-2(1H)-one as a specific allosteric inhibitor of Akt” (Scientific Reports, 2017)

How the values were obtained:
GAK = experiment: KINOMEscan; details: 50000 nM
Description: KINOMEscan™ selectivity screen
(§5) The assay was perfor med at DiscoveRx Corporation according the methods published previously5. […] The kinases were produced in HEK-293 cells and subsequently tagged with DNA for qPCR detection. Streptavidin-coated magnetic beads were treated with biotinylated small molecule ligands to generate affinity resins for kinase
(§6) inhibitor or DMSO control was performed in polypropylene 384-well plates for 1 hr at room temperature. After wash with PBS buffer containing 0.05% Tween 20, the beads were incubated in elution buffer (PBS containing 0.05 % Tween 20 and 0.5 μM non-biotinylated affinity ligand) for 30 minutes at room temperature. The kinase concentration in the eluates was measured by qPCR.

WNK1 = experiment: KINOMEscan; details: 50000 nM
Description: KINOMEscan™ selectivity screen
(§7) The assay was perfor med at DiscoveRx Corporation according the methods published previously5. Briefly, Kinase-tagged T7 phage strains were grown in parallel in an E. coli host derived from the BL21 strain. E. coli were grown to log-phase and infected with T7 phage from a frozen stock and incubated with shaking at 32°C until lysis (90-150 minutes). The kinases were produced in HEK-293 cells and subsequently tagged with DNA for qPCR detection. Streptavidin-coated magnetic beads were treated with biotinylated small molecule ligands to generate affinity resins for kinase
as §6

CSF1R-autoinhibited = experiment: KINOMEscan; details: 50000 nM
Description: KINOMEscan™ selectivity screen
as §7, §6

[1] = test system: RSK4(Kin.Dom.1-N-terminal); experiment: KINOMEscan; details: 50000 nM
Description: KINOMEscan™ selectivity screen
as §7, §6

AAK1 = experiment: KINOMEscan; details: 50000 nM
Description: KINOMEscan™ selectivity screen
as §7, §6

SBK1 = experiment: KINOMEscan; details: 50000 nM
Description: KINOMEscan™ selectivity screen
as §7, §6

GRK4 = experiment: KINOMEscan; details: 50000 nM
Description: KINOMEscan™ selectivity screen
as §5, §6

cleaved caspase 3 = experiment: Western blot of cleaved caspase 3; assay type: cell-based, Mouse; details: Neuro 2A cells
Description: (§1) Neuro 2A cells were seeded in 12-well plates in DMEM containing 5% FBS for 24 hr.
(§2) After overnight serum starvation (in 0% FBS DMEM), cells were incubated for 30 min at 37 °C with G7 or LY294002 or Torin 1 (Sigma Aldrich) at various concentrations, or DMSO control. IGF-1 was added to each well at a final concentration of 100 ng/mL. After 30-min incubation cells were washed with cold PBS and lysed with 50 µL lysis buffer containing 1% Triton X-100 and protease/phosphatase inhibitors (Cell Signaling Technology) or RIPA buffer (Santa Cruz Biotech). Samples were electrophoresed in 4–12% Bis-Tris gels (Life Technologies) at 150 V using MOPS SDS running buffer. Proteins were transferred electrophoretically to a PVDF or nitrocellulose membrane. For detection of cleaved […]
(§3) caspase 3 a Trans-Blot Turbo Transfer System (Bio-Rad, 25 V for 25 min) with PVDF membrane were used. […]
(§4) anti- GAPDH (14C10) antibody (#2118) (all antibodies were from Cell Signaling Technology unless indicated, 1:1000 dilution was used) at 4°C overnight, washed three times with TBS-T, then incubated with peroxidase-conjugated secondary antibody (Sigma-Aldrich) for 1 hr at room temperature. […] Band intensity was quantitated using Kodak 1D imaging analysis software. […]

mTORC2 = experiment: Western blot of mTOR S2481 phosphorylation; assay type: cell-based, Mouse; details: all concentrations tested including 80 µM
Description: as §1, §2, §3, §4

BRAF = experiment: KINOMEscan; details: 50000 nM
Description: KINOMEscan™ selectivity screen
as §7, §6

PRKCD = experiment: KINOMEscan; details: 50000 nM
Description: KINOMEscan™ selectivity screen
as §7, §6

PCTK1 = experiment: KINOMEscan; details: 50000 nM
Description: KINOMEscan™ selectivity screen
(§8) Briefly, Kinase-tagged T7 phage strains were grown in parallel in an E. coli host derived from the BL21 strain. E. coli were grown to log-phase and infected with T7 phage from a frozen stock and incubated with shaking at 32°C until lysis (90-150 minutes). The kinases were produced in HEK-293 cells and subsequently tagged with DNA for qPCR detection. Streptavidin-coated magnetic beads were treated with biotinylated small molecule ligands to generate affinity resins for kinase
as §6

DCAMKL1 = experiment: KINOMEscan; details: 50000 nM
Description: KINOMEscan™ selectivity screen
as §7, §6

PRKCI = experiment: KINOMEscan; details: 50000 nM
Description: KINOMEscan™ selectivity screen
as §7, §6

ALK = experiment: KINOMEscan; details: 50000 nM
Description: KINOMEscan™ selectivity screen
as §7, §6

SGK2 = experiment: KINOMEscan; details: 50000 nM
Description: KINOMEscan™ selectivity screen
as §8, §6

FGFR3(G697C) = experiment: KINOMEscan; details: 50000 nM
Description: KINOMEscan™ selectivity screen
as §7, §6

Akt = test system: T1, Akt; experiment: In vitro phosphorylation of Akt S473 by MAPKAP kinase 2; assay type: biochemical; details: inactive Akt, PE/PC/PS/PIP3 vesicles
T1 construct: purchased Millipore 14-279

MLCK = experiment: KINOMEscan; details: 50000 nM
Description: KINOMEscan™ selectivity screen
as §7, §6

MAP4K3 = experiment: KINOMEscan; details: 50000 nM
Description: KINOMEscan™ selectivity screen
as §7, §6

RIPK4 = experiment: KINOMEscan; details: 50000 nM
Description: KINOMEscan™ selectivity screen
as §7, §6

CSNK1A1L = experiment: KINOMEscan; details: 50000 nM
Description: KINOMEscan™ selectivity screen
as §7, §6

MEK1 = experiment: KINOMEscan; details: 50000 nM
Description: KINOMEscan™ selectivity screen
as §8, §6

ITK = experiment: KINOMEscan; details: 50000 nM
Description: KINOMEscan™ selectivity screen
as §8, §6

PCTK3 = experiment: KINOMEscan; details: 50000 nM
Description: KINOMEscan™ selectivity screen
as §7, §6

TRPM6 = experiment: KINOMEscan; details: 50000 nM
Description: KINOMEscan™ selectivity screen
as §8, §6

HUNK = experiment: KINOMEscan; details: 50000 nM
Description: KINOMEscan™ selectivity screen
as §8, §6

EGFR(L861Q) = experiment: KINOMEscan; details: 50000 nM
Description: KINOMEscan™ selectivity screen
as §8, §6

PAK7 = experiment: KINOMEscan; details: 50000 nM
Description: KINOMEscan™ selectivity screen
as §7, §6

IKK-epsilon = experiment: KINOMEscan; details: 50000 nM
Description: KINOMEscan™ selectivity screen
as §8, §6

ADCK3 = experiment: KINOMEscan; details: 50000 nM
Description: KINOMEscan™ selectivity screen
as §7, §6

ERBB3 = experiment: KINOMEscan; details: 50000 nM
Description: KINOMEscan™ selectivity screen
as §7, §6

FER = experiment: KINOMEscan; details: 50000 nM
Description: as §8, §6

CDK2 = experiment: KINOMEscan; details: 50000 nM
Description: KINOMEscan™ selectivity screen
as §8, §6

p38-delta = experiment: KINOMEscan; details: 50000 nM
Description: KINOMEscan™ selectivity screen
as §8, §6

PIK4CB = experiment: KINOMEscan; details: 50000 nM
Description: KINOMEscan™ selectivity screen
as §7, §6

PIKFYVE = experiment: KINOMEscan; details: 50000 nM
Description: KINOMEscan™ selectivity screen
as §8, §6

ERK2 = experiment: KINOMEscan; details: 50000 nM
Description: KINOMEscan™ selectivity screen
as §7, §6

PYK2 = experiment: KINOMEscan; details: 50000 nM
Description: KINOMEscan™ selectivity screen
Briefly, Kinase-tagged T7 phage strains were grown in parallel in an E. coli host derived from the BL21 strain. E. coli were grown to log-phase and infected with T7 phage from a frozen stock and incubated with shaking at 32°C until lysis (90-150 minutes). The kinases were produced in HEK-293 cells and subsequently tagged with DNA for qPCR detection.
After wash with PBS buffer containing 0.05% Tween 20, the beads were incubated in elution buffer (PBS containing 0.05 % Tween 20 and 0.5 μM non-biotinylated affinity ligand) for 30 minutes at room temperature. The kinase concentration in the eluates was measured by qPCR.

Structure (SMILES): Oc1cc(-c2ccccc2)c2ccccc2n1 [G7, 4-phenylquinolin-2(1H)-one]
- Percent Control (GAK): 56%
- Percent Control (WNK1): 97%
- Percent Control (CSF1R-autoinhibited): 16%
- Percent Control [1]: 34%
- Percent Control (AAK1): 62%
- Percent Control (SBK1): 86%
- Percent Control (GRK4): 96%
- levels of the cleaved caspase 3 (cleaved caspase 3): elevated levels
- phosphorylation of mTORC2 at S2481 (mTORC2): did not inhibit
- Percent Control (BRAF): 84%
- Percent Control (PRKCD): 100%
- Percent Control (PCTK1): 91%
- Percent Control (DCAMKL1): 87%
- Percent Control (PRKCI): 98%
- Percent Control (ALK): 95%
- Percent Control (SGK2): 62%
- Percent Control (FGFR3(G697C)): 98%
- in vitro phosphorylation of S473 by MAPKAP kinase 2 (Akt): impaired
- Percent Control (MLCK): 78%
- Percent Control (MAP4K3): 89%
- Percent Control (RIPK4): 80%
- Percent Control (CSNK1A1L): 81%
- Percent Control (MEK1): 69%
- Percent Control (ITK): 60%
- Percent Control (PCTK3): 96%
- Percent Control (TRPM6): 78%
- Percent Control (HUNK): 70%
- Percent Control (EGFR(L861Q)): 71%
- Percent Control (PAK7): 57%
- Percent Control (IKK-epsilon): 100%
- Percent Control (ADCK3): 92%
- Percent Control (ERBB3): 88%
- Percent Control (FER): 84%
- Percent Control (CDK2): 88%
- Percent Control (p38-delta): 100%
- Percent Control (PIK4CB): 64%
- Percent Control (PIKFYVE): 74%
- Percent Control (ERK2): 93%
- Percent Control (PYK2): 93%
